In patent US20170253607A1, “LONG-ACTING HIV PROTEASE INHIBITOR” (Shionogi & Co., Ltd., priority 2014, published 2017):

Target: HIV-1 PR (Human immunodeficiency virus type 1 group M subtype B, UniProt P04585)
Test: HIV-protease inhibitory activity assay (FRET peptide substrate)
Format: biochemical
Settings: Test Example 1
Procedure: Test Example 1: HIV-Protease Inhibitory Activity Assay
The HIV-1 PR assay was performed by using a FRET (Fluorescence Resonance Energy Transfer) peptide substrate (AnaSpec, Inc., Fremont, Calif.). Initially in the intact FRET peptide, the fluorescence of HiLyte Fluor 488 is quenched by QXL 520. Upon substrate cleavage by PR, the fluorescence is recovered and can be monitored. Test compounds diluted in DMSO was plated to the wells of 384-well plate. Then, mixed with assay buffer (0.1 mol/L NaAc containing 0.5 mol/L NaCl, 1 mmol/L EDTA, 1 mmol/L DTT, and 0.05% Tween 20, pH 4.8) in the presence or absence of HIV-1 PR (0.83 ng), and let it stand for 5 minutes at room temperature. Background fluorescence intensity was measured and let it stand for another 15 minutes at room temperature. The enzyme reaction was started by adding substrate diluted in assay buffer at final concentration of 2 μmol/L, and let it stand for 60 minutes at room temperature. After 60 minutes, the fluorescence intensity was measured. Fluorescence intensity was measured with excitation and emission wavelengths of 485 nm and 535 nm, respectively.
IC50 values were determined using non-linear regression four-parameter logistic equation, y=A+((B−A)/(1+((C/x)̂D))) where A=minimum inhibition, B=maximum inhibition, C=log IC50, D=slope factor, x=concentration of compound and y=% inhibition.

| Structure (SMILES) | IC50 [nM] |
| --- | --- |
| COc1ccc(S(=O)(=O)N(CC(C)C)CC(O)C(Cc2ccc(OCc3ccccc3OCC(=O)O)cc2)NC(=O)OC2COC3(C)OCCC23)cc1 (stereo not drawn) [Compound I-311] | 1.88 |
| COc1ccc(S(=O)(=O)N(CC(C)C)CC(O)C(Cc2ccc(OC3CCN(Cc4ccccc4-c4sc5c(c4C(=O)O)CC(C)(C)CC5)C3)cc2)NC(=O)OC2COC3(C)OCCC23)cc1 (stereo not drawn) [Compound I-207] | 2.1 |
| COc1ccc(S(=O)(=O)N(CC(C)C)CC(O)C(Cc2ccc(N(C)CC3=C(c4sc5c(c4C(=O)O)CC(C)(C)CC5)COC3)cc2)NC(=O)OC2COC3(C)OCCC23)cc1 (stereo not drawn) [Compound I-569] | 2.22 |
| COc1ccc(S(=O)(=O)N(CC(C)C)CC(O)C(Cc2ccc(NCCCc3sc4c(c3C(=O)O)CC(C)(C)CC4)cc2)NC(=O)OC2COC3(C)OCCC23)cc1 (stereo not drawn) [Compound I-335] | 1.81 |
| COc1ccc(S(=O)(=O)N(CC(C)C)CC(O)C(Cc2ccc(N(C)CC3CC(C)(C)CCC3c3sc4c(c3C(=O)O)CC(C)(C)CC4)cc2)NC(=O)OC2COC3(C)OCCC23)cc1 (stereo not drawn) [Compound I-769] | 5.98 |
| COc1ccc(S(=O)(=O)N(CC(C)C)CC(O)C(Cc2ccc(N(Cc3ccccn3)Cc3ccccc3-c3sc4c(c3C(=O)O)CC(C)(C)CC4)cc2)NC(=O)OC2COC3(C)OCCC23)cc1 (stereo not drawn) [Compound I-486] | 4.59 |
| CC(C)CN(CC(O)C(Cc1ccc(NCc2ccccc2C(=O)Nc2sc3c(c2C(=O)O)CC(C)(C)CC3)cc1)NC(=O)OC1COC2(C)OCCC12)S(=O)(=O)c1ccc2ncsc2c1 (stereo not drawn) [Compound I-592] | 3.19 |
| CC(C)CN(CC(O)C(Cc1ccc(OCc2sc(Oc3ccccc3)nc2C(=O)O)cc1)NC(=O)OC1COC2OCCC12)S(=O)(=O)c1ccc2ncsc2c1 (stereo not drawn) [Compound I-818] | 0.64 |
| CCCN(Cc1ccccc1-c1sc2c(c1C(=O)O)CC(C)(C)CC2)c1ccc(CC(NC(=O)OC2COC3(C)OCCC23)C(O)CN(CC(C)C)S(=O)(=O)c2ccc(OC)cc2)cc1 (stereo not drawn) [Compound I-462] | 3.33 |
| COc1ccc(S(=O)(=O)N(CC(C)C)CC(O)C(Cc2ccc(NCc3ccccc3-c3c(C(=O)O)[nH]c4c3CCCC4=O)cc2)NC(=O)OC2COC3(C)OCCC23)cc1 (stereo not drawn) [Compound I-495] | 1.48 |
| COc1ccc(S(=O)(=O)N(CC(C)C)CC(O)C(Cc2ccc(OCC3CCN(c4ccc(C#N)cc4-c4sc5c(c4C(=O)O)CC(C)(C)CC5)CC3)cc2)NC(=O)OC2COC3(C)OCCC23)cc1 (stereo not drawn) [Compound I-325] | 31.7 |
| COc1ccc(S(=O)(=O)N(CC(C)C)CC(O)C(Cc2ccc(N(C)Cc3nc(N4CCOCC4)sc3-c3sc4c(c3C(=O)O)CC(C)(C)CC4)cc2)NC(=O)OC2COC3(C)OCCC23)cc1 (stereo not drawn) [Compound I-757] | 3.02 |
| COc1ccc(S(=O)(=O)N(CC(C)C)CC(O)C(Cc2ccc(N3CCN(c4ccc(-c5sc6c(c5C(=O)O)CC(C)(C)CC6)cc4)CC3)cc2)NC(=O)OC2COC3(C)OCCC23)cc1 (stereo not drawn) [Compound I-209] | 3.07 |
| CCN(Cc1ccccc1C(=O)Nc1sc2c(c1C(=O)O)CC(C)(C)CC2)c1ccc(CC(NC(=O)OC2COC3(C)OCCC23)C(O)CN(CC(C)C)S(=O)(=O)c2ccc(OC)cc2)cc1 (stereo not drawn) [Compound I-669] | 8.54 |
| COc1ccc(S(=O)(=O)N(CC(C)C)CC(O)C(Cc2ccc(N(C)Cc3cc(-c4ccc5ccccc5c4)ccc3-c3sc4c(c3C(=O)O)CC(C)(C)CC4)cc2)NC(=O)OC2COC3(C)OCCC23)cc1 (stereo not drawn) [Compound I-692] | 26.1 |
| COc1ccc(S(=O)(=O)N(CC(C)C)CC(O)C(Cc2ccc(NCc3nc(N4CCC4)sc3-c3sc4c(c3C(=O)O)CC(C)(C)CC4)cc2)NC(=O)OC2COC3(C)OCCC23)cc1 (stereo not drawn) [Compound I-753] | 2.39 |
| COc1ccc(S(=O)(=O)N(CC(C)C)CC(O)C(Cc2ccc(N3CCC(c4ccc(-c5sc6c(c5C(=O)O)CC(C)(C)CC6)cc4)C3)cc2)NC(=O)OC2COC3(C)OCCC23)cc1 (stereo not drawn) [Compound I-577] | 6.47 |
| COc1ccc(S(=O)(=O)N(CC(C)C)C[C@@H](O)[C@H](Cc2ccc(OCc3ccccc3-c3sc4c(c3C(N)=O)CC(C)(C)CC4)cc2)NC(=O)O[C@H]2CO[C@@]3(C)OCC[C@@H]23)cc1 [Compound I-20] | 1.77 |
